What was measured:
human alpha 7-wt nAChR = biological target: T1, human alpha 7-wt nAChR (Homo sapiens, UniProt P36544); experiment: Ca2+ flux imaging (FDSS) (Protocol B); format: cell-based; conditions: for EC50: potentiation of 100 μM choline, compounds 0.01 μM to 30 μM, read-out: a7-PAM-G_[33]_pEC50 pEC50 (converted); for Emax: efficacy of 100 μM choline defined as 100% in the absence of a PAM, read-out: a7-PAM-G_[33]_Eff_Curve_FI % Efficacy
T1 construct: expressed in transfected cells
In short: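 PAM activity was measured as FDSS calcium fluorescence in α7-wt nAChR cells loaded with 2 μM Fluo-4AM, with compounds at 0.01–30 μM added alongside or 10 min ahead of sub-maximal 100 μM choline. Peak responses were normalised to choline-only efficacy, and EC50 was taken at half-maximal effect.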

T1 sequence (P36544 23-502): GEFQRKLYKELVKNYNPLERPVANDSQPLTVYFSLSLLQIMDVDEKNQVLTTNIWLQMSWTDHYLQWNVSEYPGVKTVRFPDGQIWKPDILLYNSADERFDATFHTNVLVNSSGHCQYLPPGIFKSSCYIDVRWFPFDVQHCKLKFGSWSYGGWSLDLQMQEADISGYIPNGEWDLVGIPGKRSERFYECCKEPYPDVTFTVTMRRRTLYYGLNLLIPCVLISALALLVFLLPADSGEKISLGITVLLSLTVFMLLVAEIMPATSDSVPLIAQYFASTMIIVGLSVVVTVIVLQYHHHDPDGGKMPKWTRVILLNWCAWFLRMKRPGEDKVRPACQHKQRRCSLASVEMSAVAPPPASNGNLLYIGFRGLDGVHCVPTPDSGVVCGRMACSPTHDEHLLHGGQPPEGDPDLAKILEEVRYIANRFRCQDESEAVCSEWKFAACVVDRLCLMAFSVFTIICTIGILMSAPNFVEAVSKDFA

| Structure (SMILES) | melting point | EC50 (human alpha 7-wt nAChR) | Emax (human alpha 7-wt nAChR) |
| --- | --- | --- | --- |
| Cc1cc(F)ccc1C(=O)NCc1nc(N2C[C@@H](C)O[C@@H](C)C2)sc1-c1ccncc1 [Compound 102, N-[[2-[(2R,6S)-2,6-dimethyl-4-morpholinyl]-5-(4-pyridinyl)-4-thiazolyl]methyl]-4-fluoro-2-methyl-benzamide] | 161 °C | 347 nM | 982% |
| Cc1cc(-c2sc(N3C[C@@H](C)O[C@@H](C)C3)nc2CNC(=O)c2ncoc2C)cc(C)n1 [Compound 161, N-[[2-[(2R,6S)-2,6-dimethyl-4-morpholinyl]-5-(2,6-dimethyl-4-pyridinyl)-4-thiazolyl]methyl]-5-methyl-4-oxazolecarboxamide] | 201 °C | 5130 nM | 509% |
| Cc1cc(-c2sc(N3CCOC[C@@H]3C)nc2CNC(=O)CC2CC2)cc(C)n1 [Compound 187, N-[[5-(2,6-dimethyl-4-pyridinyl)-2-[(3S)-3-methyl-4-morpholinyl]-4-thiazolyl]methyl]-cyclopropaneacetamide] | 138 °C | 5250 nM | 994% |
| Cc1cc(-c2sc(N3CC(C)OC(C(F)(F)F)C3)nc2CNC(=O)CC2CC2)cc(C)n1 (single isomer, unassigned) [Compound 133, N-[[5-(2,6-dimethyl-4-pyridinyl)-2-[2-methyl-6-(trifluoromethyl)-4-morpholinyl]-4-thiazolyl]methyl]-cyclopropaneacetamide] | 156 °C | 115 nM |  |
| Cc1cc(-c2sc(N3C[C@@H](C)O[C@@H](C)C3)nc2CNC(=O)c2nn(C)cc2C)cc(C)n1 [Compound 172, N-[[2-[(2R,6S)-2,6-dimethyl-4-morpholinyl]-5-(2,6-dimethyl-4-pyridinyl)-4-thiazolyl]methyl]-1,4-dimethyl-1H-pyrazole-3-carboxamide] | 165 °C | 2630 nM | 292% |
| Cc1cc(-c2sc(N3CCOCC3)nc2CNC(=O)c2cc(C)on2)cc(C)n1 [Compound 63, N-[[5-(2,6-dimethyl-4-pyridinyl)-2-(4-morpholinyl)-4-thiazolyl]methyl]-5-methyl-3-isoxazolecarboxamide] | 197 °C | 1820 nM | 969% |
| Cc1cc(-c2sc(N3C[C@@H](C)O[C@@H](C)C3)nc2CNC(=O)CC2CC2)c(C)cn1 [Compound 97, N-[[2-[(2R,6S)-2,6-dimethyl-4-morpholinyl]-5-(2,5-dimethyl-4-pyridinyl)-4-thiazolyl]methyl]-cyclopropaneacetamide] | 138 °C | 3020 nM | 424% |
| COCC(=O)NCc1nc(N2C[C@@H](C)O[C@@H](C)C2)sc1-c1cc(C)nc(C)c1 [Compound 37, N-[[2-[(2R,6S)-2,6-dimethyl-4-morpholinyl]-5-(2,6-dimethyl-4-pyridinyl)-4-thiazolyl]methyl]-2-methoxy-acetamide] | 150 °C |  | 293% |
| Cc1cc(-c2sc(N3CC4CCC(C3)O4)nc2CNC(=O)c2conc2C)cc(C)n1 [Compound 211, N-[[5-(2,6-dimethyl-4-pyridinyl)-2-(8-oxa-3-azabicyclo[3.2.1]oct-3-yl)-4-thiazolyl]methyl]-3-methyl-4-isoxazolecarboxamide] | 94 °C | 4900 nM | 246% |
| C[C@@H]1CN(c2nc(CNC(=O)CC3CC3)c(-c3ccncc3)s2)C[C@H](C)O1 [Compound 99, N-[[2-[(2R,6S)-2,6-dimethyl-4-morpholinyl]-5-(4-pyridinyl)-4-thiazolyl]methyl]-cyclopropaneacetamide] | 178 °C | 7410 nM |  |

Results, then the molecule that gave them:

| melting point | EC50 (human alpha 7-wt nAChR) | Emax (human alpha 7-wt nAChR) | Structure (SMILES) |
| --- | --- | --- | --- |
| 169 °C | 8130 nM |  | Cc1cc(-c2sc(N3C[C@@H](C)O[C@@H](C)C3)nc2CNC(=O)c2cnn(C)c2C)cc(C)n1 [Compound 160, N-[[2-[(2R,6S)-2,6-dimethyl-4-morpholinyl]-5-(2,6-dimethyl-4-pyridinyl)-4-thiazolyl]methyl]-1,5-dimethyl-1H-pyrazole-4-carboxamide] |
| 164 °C | 1620 nM |  | Cc1cc(-c2sc(N3C[C@@H](C)O[C@@H](C)C3)nc2CNC(=O)c2ccno2)cc(C)n1 [Compound 149, N-[[2-[(2R,6S)-2,6-dimethyl-4-morpholinyl]-5-(2,6-dimethyl-4-pyridinyl)-4-thiazolyl]methyl]-5-isoxazolecarboxamide] |
| 188 °C | 107 nM | 809% | Cc1cc(-c2sc(N3CCOC(C)C3)nc2CNC(=O)c2ccc(F)cc2C)cc(C)n1 (single isomer, unassigned) [Compound 77, N-[[5-(2,6-dimethyl-4-pyridinyl)-2-[(2R*)-2-methyl-4-morpholinyl]-4-thiazolyl]methyl]-4-fluoro-2-methyl-benzamide] |
| 152 °C | 2040 nM | 356% | Cc1ccc(-c2sc(N3C[C@@H](C)O[C@@H](C)C3)nc2CNC(=O)c2ccccc2Cl)cn1 [Compound 121, 2-chloro-N-[[2-[(2R,6S)-2,6-dimethyl-4-morpholinyl]-5-(6-methyl-3-pyridinyl)-4-thiazolyl]methyl]-benzamide] |
| 153 °C | 479 nM | 477% | Cc1cc(-c2sc(N3C[C@@H](C)O[C@@H](C)C3)nc2CNC(=O)c2cccc(F)c2)ccn1 [Compound 93, N-[[2-[(2R,6S)-2,6-dimethyl-4-morpholinyl]-5-(2-methyl-4-pyridinyl)-4-thiazolyl]methyl]-3-fluoro-benzamide] |
